Experimental data published in PMC4854315, “Discovery of a novel allosteric inhibitor-binding site in ERK5: comparison with the canonical kinase hinge ATP-binding site” (Acta Crystallographica. Section D, Structural Biology, 2016).

How the values were obtained:
Assay in all cases: Z'-LYTE kinase panel
Format in all cases: biochemical
MAPK3 (ERK1) = target: T1, MAPK3 (ERK1) (Homo sapiens, UniProt P27361)
T1 construct: purchased ThermoFisher (SelectScreen, Z'-LYTE)
Outline: (§1)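 Compounds were profiled across a 225-kinase standard panel. Each kinase was run in the standard Z′-LYTE assay and percentage inhibition was recorded at a compound concentration of 10 µM.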

NEK7 = target: T2, NEK7 (Homo sapiens, UniProt Q8TDX7)
T2 construct: purchased ThermoFisher (SelectScreen, Z'-LYTE)
T2 sequence (Q8TDX7 whole entry): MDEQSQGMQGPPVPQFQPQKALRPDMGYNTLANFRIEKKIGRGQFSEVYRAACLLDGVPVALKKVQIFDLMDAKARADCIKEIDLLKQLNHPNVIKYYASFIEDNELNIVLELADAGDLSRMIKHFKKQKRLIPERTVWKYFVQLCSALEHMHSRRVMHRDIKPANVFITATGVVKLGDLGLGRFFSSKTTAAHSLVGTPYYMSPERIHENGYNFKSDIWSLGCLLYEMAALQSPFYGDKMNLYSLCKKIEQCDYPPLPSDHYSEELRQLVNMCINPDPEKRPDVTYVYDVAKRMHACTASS
Outline: as §1

STK22D (TSSK1) = target: T3, STK22D (TSSK1) (Homo sapiens, UniProt Q9BXA7)
T3 construct: purchased ThermoFisher (SelectScreen, Z'-LYTE)
T3 sequence (Q9BXA7 1-367): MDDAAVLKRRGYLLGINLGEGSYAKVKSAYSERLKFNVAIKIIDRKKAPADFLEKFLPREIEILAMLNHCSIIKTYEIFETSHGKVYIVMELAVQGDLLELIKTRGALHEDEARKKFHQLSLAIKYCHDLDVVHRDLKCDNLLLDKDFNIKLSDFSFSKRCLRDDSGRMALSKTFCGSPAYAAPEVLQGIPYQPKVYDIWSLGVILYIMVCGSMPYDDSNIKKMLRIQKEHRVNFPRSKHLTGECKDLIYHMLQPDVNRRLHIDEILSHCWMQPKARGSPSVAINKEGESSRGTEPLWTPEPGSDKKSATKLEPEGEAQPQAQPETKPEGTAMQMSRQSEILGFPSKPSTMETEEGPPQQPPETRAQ
Outline: as §1

RPS6KA3 (RSK2) = target: T4, RPS6KA3 (RSK2) (Homo sapiens, UniProt P51812)
T4 construct: purchased ThermoFisher (SelectScreen, Z'-LYTE)
T4 sequence (P51812 whole entry): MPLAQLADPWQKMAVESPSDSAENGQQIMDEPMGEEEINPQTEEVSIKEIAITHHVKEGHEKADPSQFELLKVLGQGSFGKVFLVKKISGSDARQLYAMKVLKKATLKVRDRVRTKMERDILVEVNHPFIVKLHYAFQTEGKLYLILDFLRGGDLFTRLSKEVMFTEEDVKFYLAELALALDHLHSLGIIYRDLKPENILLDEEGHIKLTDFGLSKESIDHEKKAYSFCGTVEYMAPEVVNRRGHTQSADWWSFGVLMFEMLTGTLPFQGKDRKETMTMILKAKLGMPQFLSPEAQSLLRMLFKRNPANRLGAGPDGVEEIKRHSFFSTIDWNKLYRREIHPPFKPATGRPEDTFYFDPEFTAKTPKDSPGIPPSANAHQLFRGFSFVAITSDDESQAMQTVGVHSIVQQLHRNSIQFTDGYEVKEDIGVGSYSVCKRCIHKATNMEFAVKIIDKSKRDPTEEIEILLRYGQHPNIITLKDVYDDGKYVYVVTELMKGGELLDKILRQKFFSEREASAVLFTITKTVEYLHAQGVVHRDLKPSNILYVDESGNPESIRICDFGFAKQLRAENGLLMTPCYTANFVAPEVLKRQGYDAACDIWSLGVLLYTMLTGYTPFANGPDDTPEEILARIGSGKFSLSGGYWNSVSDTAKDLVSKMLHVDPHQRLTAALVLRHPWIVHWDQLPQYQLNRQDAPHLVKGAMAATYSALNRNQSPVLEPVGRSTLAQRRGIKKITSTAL
Outline: as §1

DNA-PK = target: T5, DNA-PK (Homo sapiens, UniProt P78527)
T5 construct: purchased ThermoFisher (SelectScreen, Z'-LYTE)
Outline: as §1

HIPK3 (YAK1) = target: T6, HIPK3 (YAK1) (Homo sapiens, UniProt Q9H422)
T6 construct: purchased ThermoFisher (SelectScreen, Z'-LYTE)
Outline: as §1

LTK (TYK1) = target: T7, LTK (TYK1) (Homo sapiens, UniProt P29376)
T7 construct: purchased ThermoFisher (SelectScreen, Z'-LYTE)
Outline: as §1

CSNK1G3 (CK1 gamma 3) = target: T8, CSNK1G3 (CK1 gamma 3) (Homo sapiens, UniProt Q9Y6M4)
T8 construct: purchased ThermoFisher (SelectScreen, Z'-LYTE)
T8 sequence (Q9Y6M4 whole entry): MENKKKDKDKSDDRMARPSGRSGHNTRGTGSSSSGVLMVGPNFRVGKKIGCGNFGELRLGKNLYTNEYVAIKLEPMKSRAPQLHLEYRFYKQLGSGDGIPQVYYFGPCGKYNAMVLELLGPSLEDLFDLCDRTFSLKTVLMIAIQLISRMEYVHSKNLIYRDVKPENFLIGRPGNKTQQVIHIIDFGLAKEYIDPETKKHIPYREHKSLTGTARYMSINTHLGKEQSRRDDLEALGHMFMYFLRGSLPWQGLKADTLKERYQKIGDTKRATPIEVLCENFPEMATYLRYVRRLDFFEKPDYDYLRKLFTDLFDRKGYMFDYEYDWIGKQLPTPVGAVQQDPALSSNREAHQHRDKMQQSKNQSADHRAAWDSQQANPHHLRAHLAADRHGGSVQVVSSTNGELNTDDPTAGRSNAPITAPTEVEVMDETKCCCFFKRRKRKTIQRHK
Outline: as §1

CAMK2B (CaMKII beta) = target: T9, CAMK2B (CaMKII beta) (Homo sapiens, UniProt Q13554)
T9 construct: purchased ThermoFisher (SelectScreen, Z'-LYTE)
Outline: as §1

SRMS (Srm) = target: T10, SRMS (Srm) (Homo sapiens, UniProt Q9H3Y6)
T10 construct: purchased ThermoFisher (SelectScreen, Z'-LYTE)
T10 sequence (Q9H3Y6 whole entry): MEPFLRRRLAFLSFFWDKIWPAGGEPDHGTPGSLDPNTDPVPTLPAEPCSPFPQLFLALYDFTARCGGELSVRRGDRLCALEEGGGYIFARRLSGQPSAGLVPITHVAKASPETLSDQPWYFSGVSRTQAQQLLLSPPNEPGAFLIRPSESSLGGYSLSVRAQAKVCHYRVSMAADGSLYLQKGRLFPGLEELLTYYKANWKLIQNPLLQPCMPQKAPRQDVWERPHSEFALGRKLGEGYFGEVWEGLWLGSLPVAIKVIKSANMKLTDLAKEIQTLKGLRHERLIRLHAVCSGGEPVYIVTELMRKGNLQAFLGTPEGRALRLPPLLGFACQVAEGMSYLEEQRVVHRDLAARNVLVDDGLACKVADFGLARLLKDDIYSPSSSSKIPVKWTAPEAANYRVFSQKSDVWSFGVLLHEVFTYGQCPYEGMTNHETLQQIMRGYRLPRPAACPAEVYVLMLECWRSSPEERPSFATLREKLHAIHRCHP
Outline: as §1

[1] = target: T11, MAPK14 (p38 alpha) Direct (Homo sapiens, UniProt Q16539)
T11 construct: purchased ThermoFisher (SelectScreen, Z'-LYTE)
Outline: as §1

PHKG2 = target: T12, PHKG2 (Homo sapiens, UniProt P15735)
T12 construct: purchased ThermoFisher (SelectScreen, Z'-LYTE)
T12 sequence (P15735 1-406): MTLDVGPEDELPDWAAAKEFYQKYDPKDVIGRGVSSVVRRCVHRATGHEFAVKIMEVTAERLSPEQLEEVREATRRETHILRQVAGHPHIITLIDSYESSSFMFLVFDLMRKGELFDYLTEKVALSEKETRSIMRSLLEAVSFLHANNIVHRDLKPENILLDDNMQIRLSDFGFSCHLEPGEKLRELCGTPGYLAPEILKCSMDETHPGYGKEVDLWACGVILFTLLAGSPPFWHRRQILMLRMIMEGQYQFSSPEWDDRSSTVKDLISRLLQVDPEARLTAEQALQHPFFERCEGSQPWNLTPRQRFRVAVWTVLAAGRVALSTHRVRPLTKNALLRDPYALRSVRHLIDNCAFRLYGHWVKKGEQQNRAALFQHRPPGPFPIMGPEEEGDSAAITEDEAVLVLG
Outline: as §1

IKBKE (IKK epsilon) = target: T13, IKBKE (IKK epsilon) (Homo sapiens, UniProt Q14164)
T13 construct: purchased ThermoFisher (SelectScreen, Z'-LYTE)
T13 sequence (Q14164 1-716): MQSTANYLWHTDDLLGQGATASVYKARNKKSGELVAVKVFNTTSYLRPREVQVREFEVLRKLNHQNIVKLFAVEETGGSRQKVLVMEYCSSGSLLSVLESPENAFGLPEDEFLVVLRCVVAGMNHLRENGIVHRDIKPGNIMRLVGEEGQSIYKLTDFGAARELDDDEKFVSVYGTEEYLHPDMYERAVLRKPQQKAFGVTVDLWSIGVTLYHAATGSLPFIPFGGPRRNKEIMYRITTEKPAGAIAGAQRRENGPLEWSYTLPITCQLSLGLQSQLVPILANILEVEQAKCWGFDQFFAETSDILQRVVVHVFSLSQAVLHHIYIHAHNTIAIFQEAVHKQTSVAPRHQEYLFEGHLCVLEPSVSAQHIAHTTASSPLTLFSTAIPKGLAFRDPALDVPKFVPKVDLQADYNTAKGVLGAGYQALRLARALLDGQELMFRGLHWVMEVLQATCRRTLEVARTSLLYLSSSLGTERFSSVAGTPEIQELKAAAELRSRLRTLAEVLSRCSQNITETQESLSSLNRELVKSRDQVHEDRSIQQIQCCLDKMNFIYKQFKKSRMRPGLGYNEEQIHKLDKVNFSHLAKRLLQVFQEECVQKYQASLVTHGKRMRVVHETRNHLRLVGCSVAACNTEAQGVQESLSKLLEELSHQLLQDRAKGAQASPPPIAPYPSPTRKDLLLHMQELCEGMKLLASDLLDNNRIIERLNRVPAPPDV
Outline: as §1

MKNK1 (MNK1) = target: T14, MKNK1 (MNK1) (Homo sapiens, UniProt Q9BUB5)
T14 construct: purchased ThermoFisher (SelectScreen, Z'-LYTE)
T14 sequence (Q9BUB5 whole entry): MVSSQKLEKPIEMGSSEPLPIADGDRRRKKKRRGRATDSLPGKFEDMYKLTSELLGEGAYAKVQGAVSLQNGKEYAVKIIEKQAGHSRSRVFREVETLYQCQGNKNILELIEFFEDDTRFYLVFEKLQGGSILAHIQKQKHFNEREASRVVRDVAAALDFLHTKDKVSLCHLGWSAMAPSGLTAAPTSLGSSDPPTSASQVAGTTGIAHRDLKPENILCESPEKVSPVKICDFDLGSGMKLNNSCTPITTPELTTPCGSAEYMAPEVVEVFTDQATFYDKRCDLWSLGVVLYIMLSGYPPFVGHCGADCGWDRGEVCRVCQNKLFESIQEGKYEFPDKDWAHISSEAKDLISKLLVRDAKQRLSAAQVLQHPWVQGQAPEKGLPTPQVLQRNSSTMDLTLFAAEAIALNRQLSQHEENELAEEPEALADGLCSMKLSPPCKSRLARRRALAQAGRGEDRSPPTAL
Outline: as §1

EPHA2 = target: T15, EPHA2 (Homo sapiens, UniProt P29317)
T15 construct: purchased ThermoFisher (SelectScreen, Z'-LYTE)
T15 sequence (P29317 24-976): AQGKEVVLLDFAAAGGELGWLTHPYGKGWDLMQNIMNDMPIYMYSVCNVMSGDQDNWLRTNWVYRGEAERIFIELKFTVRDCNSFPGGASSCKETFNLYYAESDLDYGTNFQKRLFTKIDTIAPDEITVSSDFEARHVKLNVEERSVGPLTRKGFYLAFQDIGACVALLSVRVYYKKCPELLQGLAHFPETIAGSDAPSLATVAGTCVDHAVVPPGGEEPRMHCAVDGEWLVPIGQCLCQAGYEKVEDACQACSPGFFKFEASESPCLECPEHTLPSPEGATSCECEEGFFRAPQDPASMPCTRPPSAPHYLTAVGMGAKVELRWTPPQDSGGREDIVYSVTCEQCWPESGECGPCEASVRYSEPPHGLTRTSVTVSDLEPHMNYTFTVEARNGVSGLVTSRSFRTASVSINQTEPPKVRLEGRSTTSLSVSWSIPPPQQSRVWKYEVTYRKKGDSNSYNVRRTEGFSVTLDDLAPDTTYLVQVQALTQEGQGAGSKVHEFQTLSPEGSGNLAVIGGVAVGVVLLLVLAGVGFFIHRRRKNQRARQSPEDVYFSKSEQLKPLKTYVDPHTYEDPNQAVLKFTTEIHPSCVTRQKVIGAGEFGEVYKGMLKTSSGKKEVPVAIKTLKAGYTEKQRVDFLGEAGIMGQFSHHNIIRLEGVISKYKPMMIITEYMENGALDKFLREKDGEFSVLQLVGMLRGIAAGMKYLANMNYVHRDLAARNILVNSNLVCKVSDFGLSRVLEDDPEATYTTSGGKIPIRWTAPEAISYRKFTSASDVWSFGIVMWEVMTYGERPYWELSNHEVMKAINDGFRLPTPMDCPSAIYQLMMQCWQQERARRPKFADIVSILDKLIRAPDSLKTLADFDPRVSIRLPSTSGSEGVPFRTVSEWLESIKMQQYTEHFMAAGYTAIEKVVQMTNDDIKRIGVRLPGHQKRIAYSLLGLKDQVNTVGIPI
Outline: as §1

EGFR (ErbB1) = target: T16, EGFR (ErbB1) (Homo sapiens, UniProt P00533)
T16 construct: purchased ThermoFisher (SelectScreen, Z'-LYTE)
Outline: as §1

NEK6 = target: T17, NEK6 (Homo sapiens, UniProt Q9HC98)
T17 construct: purchased ThermoFisher (SelectScreen, Z'-LYTE)
T17 sequence (Q9HC98 whole entry): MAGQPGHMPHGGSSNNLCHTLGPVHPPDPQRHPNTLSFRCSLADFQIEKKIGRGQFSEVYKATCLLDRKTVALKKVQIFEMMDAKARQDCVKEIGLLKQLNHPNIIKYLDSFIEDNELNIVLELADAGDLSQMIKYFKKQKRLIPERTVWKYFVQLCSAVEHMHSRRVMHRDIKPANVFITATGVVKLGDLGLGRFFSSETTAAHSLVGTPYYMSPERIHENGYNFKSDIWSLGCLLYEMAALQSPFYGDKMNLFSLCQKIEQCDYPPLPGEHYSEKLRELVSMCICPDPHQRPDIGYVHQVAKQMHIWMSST
Outline: as §1

MARK2 = target: T18, MARK2 (Homo sapiens, UniProt Q7KZI7)
T18 construct: purchased ThermoFisher (SelectScreen, Z'-LYTE)
T18 sequence (Q7KZI7 whole entry): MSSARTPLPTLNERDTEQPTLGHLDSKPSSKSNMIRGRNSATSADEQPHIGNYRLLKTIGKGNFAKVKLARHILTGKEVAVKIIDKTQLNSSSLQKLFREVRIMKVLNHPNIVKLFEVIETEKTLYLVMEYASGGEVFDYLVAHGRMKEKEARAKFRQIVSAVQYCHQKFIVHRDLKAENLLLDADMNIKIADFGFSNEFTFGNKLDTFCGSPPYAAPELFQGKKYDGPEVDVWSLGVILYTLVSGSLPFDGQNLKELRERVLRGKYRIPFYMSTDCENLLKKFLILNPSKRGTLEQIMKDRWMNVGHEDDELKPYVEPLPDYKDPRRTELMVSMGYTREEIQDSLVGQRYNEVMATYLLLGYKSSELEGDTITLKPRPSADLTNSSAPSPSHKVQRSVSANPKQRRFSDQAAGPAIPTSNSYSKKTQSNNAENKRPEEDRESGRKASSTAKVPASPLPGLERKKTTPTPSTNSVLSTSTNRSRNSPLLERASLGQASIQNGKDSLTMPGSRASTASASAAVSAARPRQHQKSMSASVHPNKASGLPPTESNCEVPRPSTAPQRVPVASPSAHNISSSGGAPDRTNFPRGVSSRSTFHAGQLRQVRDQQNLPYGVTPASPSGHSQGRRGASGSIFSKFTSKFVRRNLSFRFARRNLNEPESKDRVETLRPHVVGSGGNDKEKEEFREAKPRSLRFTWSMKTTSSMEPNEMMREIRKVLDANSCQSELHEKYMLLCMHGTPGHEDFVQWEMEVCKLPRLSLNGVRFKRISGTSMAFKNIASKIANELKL
Outline: as §1

T1 sequence (P27361 whole entry): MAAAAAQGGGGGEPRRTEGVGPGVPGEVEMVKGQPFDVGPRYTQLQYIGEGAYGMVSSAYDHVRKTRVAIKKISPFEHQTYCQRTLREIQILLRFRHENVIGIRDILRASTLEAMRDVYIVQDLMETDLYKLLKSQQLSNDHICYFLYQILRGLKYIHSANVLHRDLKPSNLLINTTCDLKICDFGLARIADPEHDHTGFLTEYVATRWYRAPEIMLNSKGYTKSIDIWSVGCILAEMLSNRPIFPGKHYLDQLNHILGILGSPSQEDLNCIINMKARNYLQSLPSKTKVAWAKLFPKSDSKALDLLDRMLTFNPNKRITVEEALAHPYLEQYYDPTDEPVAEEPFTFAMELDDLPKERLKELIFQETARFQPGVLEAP

Compound | inhibition at 10 µM (MAPK3 (ERK1)) | inhibition at 10 µM (NEK7) | inhibition at 10 µM (STK22D (TSSK1)) | inhibition at 10 µM (RPS6KA3 (RSK2)) | inhibition at 10 µM (DNA-PK) | inhibition at 10 µM (HIPK3 (YAK1)) | inhibition at 10 µM (LTK (TYK1)) | inhibition at 10 µM (CSNK1G3 (CK1 gamma 3)) | inhibition at 10 µM (CAMK2B (CaMKII beta)) | inhibition at 10 µM (SRMS (Srm)) | inhibition at 10 µM [1] | inhibition at 10 µM (PHKG2) | inhibition at 10 µM (IKBKE (IKK epsilon)) | inhibition at 10 µM (MKNK1 (MNK1)) | inhibition at 10 µM (EPHA2) | inhibition at 10 µM (EGFR (ErbB1)) | inhibition at 10 µM (NEK6) | inhibition at 10 µM (MARK2) | further results
Cc1ncc(-c2nc(Nc3ccc(C(=O)NCCN4CCCCC4)cc3)ncc2F)n1C(C)C [Compound 3] | 40% | 10% | 81% | 81% | 33% | 88% | 73% | 89% | 70% | 20% | 9% | 79% | 33% | 68% | 69% | 13% | 12% | 89% | 
Cc1cc(Nc2nc(N)nn2C(=O)NC(C)C)ccc1Cl [Compound 5] | 7% | -0.441% | 21% | 37% | 13% | 6.56% | 18% | 17% | -2.29% | 2.26% | 9% | -2.57% | 9% | 7% | -1.47% | 1% | 3% | 24% | 
XMD8-92 [Compound 2, reference compound] |  |  |  |  |  |  |  |  |  |  |  |  |  |  |  |  |  |  | MAPK3 (ERK1) % Inhibition (MAPK3 (ERK1); 10 µM compound, ATP Km app): 8%; NEK7 % Inhibition (NEK7; 10 µM compound, ATP Km app): 11%; STK22D (TSSK1) % Inhibition (STK22D (TSSK1); 10 µM compound, ATP Km app): 11%; RPS6KA3 (RSK2) % Inhibition (RPS6KA3 (RSK2); 10 µM compound, ATP Km app): 98%; DNA-PK % Inhibition (DNA-PK; 10 µM compound, ATP Km app): 38%; HIPK3 (YAK1) % Inhibition (HIPK3 (YAK1); 10 µM compound, ATP Km app): 1.8%; LTK (TYK1) % Inhibition (LTK (TYK1); 10 µM compound, ATP Km app): 24%; CSNK1G3 (CK1 gamma 3) % Inhibition (CSNK1G3 (CK1 gamma 3); 10 µM compound, ATP Km app): 31%; CAMK2B (CaMKII beta) % Inhibition (CAMK2B (CaMKII beta); 10 µM compound, ATP Km app): 70%; SRMS (Srm) % Inhibition (SRMS (Srm); 10 µM compound, ATP Km app): 21%; MAPK14 (p38 alpha) Direct % Inhibition ([1]; 10 µM compound, ATP Km app): 8%; PHKG2 % Inhibition (PHKG2; 10 µM compound, ATP Km app): 19%; IKBKE (IKK epsilon) % Inhibition (IKBKE (IKK epsilon); 10 µM compound, ATP Km app): 4.66%; MKNK1 (MNK1) % Inhibition (MKNK1 (MNK1); 10 µM compound, ATP Km app): 3.65%; EPHA2 % Inhibition (EPHA2; 10 µM compound, ATP Km app): -9.52%; EGFR (ErbB1) % Inhibition (EGFR (ErbB1); 10 µM compound, ATP Km app): -11%; NEK6 % Inhibition (NEK6; 10 µM compound, ATP Km app): 68%; MARK2 % Inhibition (MARK2; 10 µM compound, ATP Km app): 9%
